Data on one compound can be found in patent US6713629B2 (dated 2004).

In general, melting point refers to the temperature, or range, at which the solid turns liquid.

Consider `CC1(c2ccccc2)SC(=S)N(Nc2ccccc2)C1=NOC(=O)Nc1ccc(Cl)c(Cl)c1` (stereo not shown), for which the melting point is 95 to 96 °C.
